The nature of series [1]: Half-life in human liver microsomes (HLM). The format is in vitro ADME. As to conditions: pH 7.4, 1 μM compound, 0.78 mg/mL HLM, NADPH, 37° C. For orientation: Liver microsomes are vesicles of endoplasmic reticulum, rich in cytochrome P450 enzymes.
Protocol: Test compounds (1 μM) are incubated with 3.3 mM MgCl2 and 0.78 mg/mL HLM (HL101) in 100 mM potassium phosphate buffer (pH 7.4) at 37° C. on the 96-deep well plate. The reaction mixture is split into two groups, a non-P450 and a P450 group. NADPH is only added to the reaction mixture of the P450 group. An aliquot of samples of P450 group is collected at 0, 10, 30, and 60 min time point, where 0 min time point indicated the time when NADPH is added into the reaction mixture of P450 group. An aliquot of samples of non-P450 group is collected at −10 and 65 min time point. Collected aliquots are extracted with acetonitrile solution containing an internal standard. The precipitated protein is spun down in centrifuge (2000 rpm, 15 min). The compound concentration in supernatant is measured by LC/MS/MS system.
The half-life value is obtained by plotting the natural logarithm of the peak area ratio of compounds/internal standard versus time. The slope of the line of best fit through the points yields the rate of metabolism (k).
The target of another series is T1, P2X7 receptor (Homo sapiens, UniProt Q99572).
T1 construct: endogenous in cells; host or cells: THP-1 cells differentiated with LPS and IFN-γ
T1 sequence (Q99572 1-595): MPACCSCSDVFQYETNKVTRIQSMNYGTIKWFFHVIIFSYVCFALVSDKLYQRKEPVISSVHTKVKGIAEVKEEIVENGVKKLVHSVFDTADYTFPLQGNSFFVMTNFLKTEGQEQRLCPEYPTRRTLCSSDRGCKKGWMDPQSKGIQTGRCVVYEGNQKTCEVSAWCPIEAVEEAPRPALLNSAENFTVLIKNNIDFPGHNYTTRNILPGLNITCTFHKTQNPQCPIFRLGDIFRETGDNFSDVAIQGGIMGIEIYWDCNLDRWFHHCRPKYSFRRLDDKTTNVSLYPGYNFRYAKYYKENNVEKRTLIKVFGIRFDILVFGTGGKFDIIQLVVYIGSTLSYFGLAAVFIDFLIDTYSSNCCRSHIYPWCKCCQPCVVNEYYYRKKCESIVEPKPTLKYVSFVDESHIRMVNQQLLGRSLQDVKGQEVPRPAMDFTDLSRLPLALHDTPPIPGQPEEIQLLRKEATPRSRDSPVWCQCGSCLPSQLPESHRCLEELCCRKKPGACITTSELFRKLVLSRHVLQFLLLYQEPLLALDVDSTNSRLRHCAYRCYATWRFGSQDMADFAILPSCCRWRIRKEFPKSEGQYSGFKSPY
Kind of series: IL-1β release assay in differentiated THP-1 cells stimulated with BzATP (Example 9). As to conditions: for inhibition at 0.3 µM: 0.3 μM concentration, read-out: IL-1β % Inhib. @ 0.3 or 0.1 μM; for IC50: four parameter logistic fit, read-out: IL-1β IC50. The format is cell-based. The gist of the method:
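Differentiated THP-1 cells pretreated 30 min with compound, then stimulated with BzATP. Released IL-1β in supernatant measured by ELISA; background-adjusted percent inhibition fitted to four-parameter logistic for IC50.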

For `O=C(Cc1ccc(Cl)c(C(F)(F)F)c1)Nc1cccc2c(=O)n(C3CNCC3O)ccc12` (centres unmarked) [ID 826], the half-life at 1 μM in series [1] is 1.85 h. For the same compound, at P2X7 receptor, the inhibition at 0.3 µM was greater than 76% and the IC50 amounted to 2.44 nM.
`O=C(Cc1ccc(Cl)c(C(F)(F)F)c1)Nc1cccc2c(=O)n([C@H]3CCNC3)ccc12` [ID 825]: the half-life at 1 μM in series [1] is 4.27 h. At P2X7 receptor, the inhibition at 0.3 µM was greater than 76% and the 50% inhibitory concentration (IC50) was determined as 16.4 nM.
`C[C@H](C(=O)Nc1cccc2c(=O)n(C3CNCC3O)ccc12)c1ccc(Cl)cc1` (some centres unmarked) [ID 829] gave a half-life at 1 μM in series [1] of 1.54 h. In addition, on P2X7 receptor, the inhibition at 0.3 µM was greater than 76% and the IC50 turned out to be 19.9 nM.
Turning to `Cc1ncccc1-n1ccc2c(NC(=O)Cc3ccc(C(F)(F)F)c(F)c3)cccc2c1=O` [ID 855], in series [1], the half-life at 1 μM is 0.73 h. Further, on P2X7 receptor, the inhibition at 0.3 µM is greater than 76% and the IC50 came to 11 nM.
For `O=C(Cc1ccc(C(F)(F)F)c(F)c1)Nc1cccc2c(=O)n(-c3cccnc3F)ccc12` [ID 871], in series [1], the half-life at 1 μM was 1.08 h. In addition, at P2X7 receptor, the inhibition at 0.3 µM is greater than 76% and the 50% inhibitory concentration (IC50) came out at 8.72 nM.
For `O=C(Cc1ccc(F)c(C(F)(F)F)c1)Nc1cccc2c(=O)n(C3CC3)ccc12` [ID 884] the same measures were 0.77 h, greater than 76% and 5.37 nM.
Taken in the same sequence, the figures for `COc1ncccc1-n1ccc2c(NC(=O)Cc3ccc(Cl)c(C(F)(F)F)c3)cccc2c1=O` [ID 847] were 0.22 h, greater than 76% and 9.37 nM.
For `Cc1ncccc1-n1ccc2c(NC(=O)Cc3ccc(Cl)c(C(F)(F)F)c3)cccc2c1=O` [ID 861], the half-life at 1 μM in series [1] is 0.49 h. Also, at P2X7 receptor, the inhibition at 0.3 µM is greater than 76% and the IC50 was 4 nM.
Consider `CC1(C)CC(CC(=O)Nc2cccc3c(=O)n([C@@H]4CCNC4)ccc23)CC(C)(C)C1` [ID 830], for which the half-life at 1 μM in series [1] is 5.59 h. Moreover, the inhibition at 0.3 µM on P2X7 receptor was greater than 76%.
The compound `O=C(Cc1ccc(Cl)c(C(F)(F)F)c1)Nc1cccc2c(=O)n(C3CCNC3)ccc12` (centres unmarked) [ID 814] showed a half-life at 1 μM in series [1] of 2.88 h. Further, on P2X7 receptor, the inhibition at 0.3 µM is greater than 76% and the half-inhibitory concentration (IC50) came out at 15.9 nM.
For the compound `O=C(Cc1ccc(Cl)cc1F)Nc1cccc2c(=O)n(C3CC3)ccc12` [ID 883], in series [1], the half-life at 1 μM is 0.54 h. Further, at P2X7 receptor, the inhibition at 0.3 µM is greater than 76% and the half-maximal inhibitory concentration (IC50) amounted to 14.7 nM.
`Cc1ccc(-n2ccc3c(NC(=O)CC45CC6CC(CC(C6)C4)C5)cccc3c2=O)cn1` [ID 715] had a half-life at 1 μM in series [1] of 0.42 h. Besides, on P2X7 receptor, the inhibition at 0.3 µM is greater than 76% and the IC50 is 4.02 nM.
In series [1], `O=C(CC1CCCCCC1)Nc1cccc2c(=O)n(C3CNCC3O)ccc12` (centres unmarked) [ID 828] showed a half-life at 1 μM of 1.38 h. Also, at P2X7 receptor, the inhibition at 0.3 µM was greater than 76% and the IC50 was 6.87 nM.
In series [1], `C[C@@H](C(=O)Nc1cccc2c(=O)n([C@H]3CCNC3)ccc12)c1ccc(Cl)c(Cl)c1` [ID 833] gave a half-life at 1 μM of 3.62 h. At P2X7 receptor, the inhibition at 0.3 µM was greater than 76% and the IC50 worked out at 35 nM.

A word on the half-life: it is the time needed for the level to fall by half in the phase considered. Low readings indicate fast loss, high ones slow loss. As a reminder, the IC50 is the concentration that inhibits the measured activity by half.
